Data as given in US7803930B2, “Antisense modulation of apolipoprotein B-expression” (Isis Pharmaceuticals, Inc., priority 2002, dated 2010).
Where two headings read alike, the source gives them in different places. In the oligonucleotide strings, read from the 5' end, every base follows the letter of its sugar. An asterisk marks phosphorothioate; unmarked linkages are phosphodiester. Other units and linkages are bracketed, terminal groups are in braces. A string of capitals states the bases alone. e = 2'-O-(2-methoxyethyl) (MOE); [5mC] = 5-methylcytosine; d = 2'-deoxy (DNA)

How the values were obtained:
apolipoprotein B mRNA [1] = test: ob/ob mice (Example 50): apolipoprotein B mRNA levels in liver; format: in vivo, mouse; conditions: high fat high cholesterol diet, 50 mg/kg i.p. twice a week, six weeks
How it was run: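 Ob/ob mice on 60% kcal fat diet with 0.15% cholesterol received 50 mg/kg oligonucleotide i.p. twice weekly for six weeks, with saline and control oligonucleotides.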

apolipoprotein B mRNA [2] = test: Lean vs high fat fed C57BL/6 mice (Example 20): target mRNA levels in liver; format: in vivo, mouse; conditions: 50 mg/kg i.p. every three days, six weeks
Procedure: Male C57BL/6 mice were divided into two matched groups; (1) wild-type control animals (lean animals) and (2) animals receiving a high fat diet (60% kcal fat). Control animals received saline treatment and were maintained on a normal rodent diet. After overnight fasting, mice from each group were dosed intraperitoneally every three days with saline or 50 mg/kg ISIS 147764 (SEQ ID No: 109) for six weeks. At study termination and forty eight hours after the final injections, animals were sacrificed and evaluated for target mRNA levels in liver, cholesterol and triglyceride levels, liver enzyme levels and serum glucose levels.

[3] = Evaluation of steatosis in high fat fed animals treated for 6 weeks, liver histology; format: in vivo, mouse; conditions: high fat fed C57BL/6 mice; 6 weeks of treatment
Source text: Tissue resected from liver is immediately immersed in Tissue Tek OCT embedding compound (Ted Pella, Inc., Redding, Calif.) and frozen in a 2-methyl-butane dry ice slurry. Tissue sections are cut at a thickness of 4-5 μm and then fixed in 5% neutral-buffered formalin. Tissue sections are stained with hematoxylin and eosin following standard histological procedures to visualize nuclei and cytoplasm, respectively, and oil red 0 according to the manufacturer's instructions (Newcomers Supply, Middleton, Wis.) to visualize lipids.
Alternatively, tissues are fixed in 10% neutral-buffered formalin, embedded in paraffin, sectioned at a thickness of 4-5 μm, deparaffinized and stained with hematoxylin and eosin, all according to standard histological procedures.
Liver tissue from ISIS 147764 (SEQ ID NO: 109) and control-treated animals described in Example 21 was evaluated for steatosis at study termination following 6 weeks of treatment. Tissue sections were stained with oil red 0 and hematoxylin to visualize lipids and nuclei, respectively. Tissue sections were also stained with hematoxylin and eosin to visualize nuclei and cytoplasm, respectively.

[4] = format: in vivo, mouse; conditions: for Cholesterol Levels / Glucose Levels / Lipoprotein Levels HDL / Lipoprotein Levels LDL / Lipoprotein Levels VLDL: ApoE knockout mice, high fat diet, six weeks; for Liver Enzyme Levels ALT / Liver Enzyme Levels AST: mouse, in vivo, ip
Source text: Female ApoE knockout mice ranged in age from 5 to 7 weeks and were placed on a normal diet for 2 weeks before study initiation. ApoE knockout mice were then fed ad libitum a 60% fat diet, with 0.15% added cholesterol to induce dyslipidemia and obesity. Control animals were maintained on a high-fat diet with no added cholesterol. […]
At study termination and forty eight hours after the final injections, animals were sacrificed and evaluated for target mRNA levels in liver by RT-PCR methods verified by Northern Blot analysis, glucose levels, cholesterol and lipid levels by HPLC separation methods and triglyceride and liver enzyme levels (performed by LabCorp Preclinical Services; San Diego, Calif.).
Data are normalized to saline controls.

[5] = Long-term study in lean Cynomolgous monkeys (Example 64): intact oligonucleotide in liver by capillary gel electrophoresis; format: in vivo, Cynomolgous monkey; conditions: for antisense oligonucleotide concentration: liver tissue, one month
Procedure: The results from the one month interval of the long term treatment are shown in Table 50 and are normalized to saline-treated animals for mRNA and to untreated baseline values for lipid levels. Total cholesterol, LDL-cholesterol, HDL-cholesterol, LDL particle concentration and triglyceride levels in serum were measured by nuclear magnetic resonance spectroscopy by Liposcience (Raleigh, N.C.). Additionally, the concentration of intact oligonucleotide in liver was measured by capillary gel electrophoresis and is presented as micrograms of oligonucleotide per gram of liver tissue. Each result represents the average of data from 4 animals (2 males and 2 females).

[6] = Long-term study in lean Cynomolgous monkeys (Example 64): toxicity (steatosis, APTT, histology, kidney); format: in vivo, Cynomolgous monkey
Procedure: Male and female Cynomologous monkeys are treated with 2, 4 or 12 mg/kg of ISIS 301012 intravenously or 2 or 20 mg/kg subcutaneously at a frequency of every two days for the first week, and every 4 days thereafter, for 1 and 3 month treatment periods. Saline-treated animals serve as controls. Each treatment group includes 2 to 3 animals of each sex.
At a one month interval and at the 3 month study termination, the animals are sacrificed and evaluated for target expression in liver, lipid levels in serum and indicators of toxicity. Liver samples are procured, RNA is isolated and apolipoprotein B mRNA expression is measured by real-time PCR as described in other examples herein. Serum lipids, including total cholesterol, LDL-cholesterol, HDL-cholesterol and triglycerides, are evaluated by routine clinical analysis using an Olympus Clinical Analyzer (Olympus America Inc., Melville, N.Y.). Ratios of LDL-cholesterol to HDL-cholesterol and total cholesterol to HDL-cholesterol are also calculated. Analyses of serum ALT and AST, inflammatory infiltrates in tissue and basophilic granules in tissue provide an assessment of toxicities related to the treatment. Hepatic steatosis, or accumulation of lipids in the liver, is assessed by routine histological analysis with oil red 0 stain and measurement of liver tissue triglycerides using a Triglyceride GPO Assay (Sigma-Aldrich, St. Louis, Mo.).
Hepatic steatosis, or accumulation of lipids in the liver, was not observed following 4 weeks of treatment with the doses indicated.

147764 (eG*eT*e[5mC]*e[5mC]*e[5mC]*dT*dG*dA*dA*dG*dA*dT*dG*dT*d[5mC]*eA*eA*eT*eG*e[5mC]) [compound 147764]
apolipoprotein B mRNA levels (apolipoprotein B mRNA [1]): able to lower
mRNA % control ApoB (apolipoprotein B mRNA [1]; liver): 43.1 % control

GTCCCTGAAGATGTCAATGC (2'-MOE gapmer, further chemistry not given here) [ISIS 147764]
Percent Change mRNA (apolipoprotein B mRNA [2]; High Fat Group): −87%
Percent Change mRNA (apolipoprotein B mRNA [2]; Lean-control group): −73%
steatosis vs saline treated animals (histology) [3]: no difference in steatosis
Cholesterol Levels ([4]; 5 mg/kg i.p. every three days): 1630 mg/dL
Glucose Levels ([4]; 5 mg/kg i.p. every three days): 195 mg/dL
Lipoprotein Levels HDL ([4]; 5 mg/kg i.p. every three days): 49 mg/dL
Lipoprotein Levels LDL ([4]; 5 mg/kg i.p. every three days): 475 mg/dL
Lipoprotein Levels VLDL ([4]; 5 mg/kg i.p. every three days): 1111 mg/dL
Cholesterol Levels ([4]; 25 mg/kg i.p. every three days): 1750 mg/dL
Glucose Levels ([4]; 25 mg/kg i.p. every three days): 209 mg/dL
Lipoprotein Levels HDL ([4]; 25 mg/kg i.p. every three days): 62 mg/dL
Lipoprotein Levels LDL ([4]; 25 mg/kg i.p. every three days): 500 mg/dL
Lipoprotein Levels VLDL ([4]; 25 mg/kg i.p. every three days): 1194 mg/dL
Cholesterol Levels ([4]; 50 mg/kg i.p. every three days): 1490 mg/dL
Glucose Levels ([4]; 50 mg/kg i.p. every three days): 191 mg/dL
Lipoprotein Levels HDL ([4]; 50 mg/kg i.p. every three days): 61 mg/dL
Lipoprotein Levels LDL ([4]; 50 mg/kg i.p. every three days): 325 mg/dL
Lipoprotein Levels VLDL ([4]; 50 mg/kg i.p. every three days): 1113 mg/dL
Liver Enzyme Levels ALT ([4]; 5 mg/kg): 48 IU/L
Liver Enzyme Levels AST ([4]; 5 mg/kg): 50 IU/L
Liver Enzyme Levels ALT ([4]; 25 mg/kg): 59 IU/L
Liver Enzyme Levels AST ([4]; 25 mg/kg): 60 IU/L
Liver Enzyme Levels ALT ([4]; 50 mg/kg): 87 IU/L
Liver Enzyme Levels AST ([4]; 50 mg/kg): 85 IU/L

ISIS 301012: SEQ ID NO: 247, antisense oligonucleotide targeted to human apolipoprotein B (antisense GCCTCAGTCTGCTTCGCACC; chemistry not given here)
antisense oligonucleotide concentration ([5]; intravenous 2 mg/kg): 92 µg/g
antisense oligonucleotide concentration ([5]; intravenous 4 mg/kg): 179 µg/g
antisense oligonucleotide concentration ([5]; intravenous 12 mg/kg): 550 µg/g
antisense oligonucleotide concentration ([5]; subcutaneous 20 mg/kg): 855 µg/g
accumulation of antisense oligonucleotide in the liver ([5]; one month interval): accumulates in the liver in a dose-dependent manner
functional changes in kidney [6]: No functional changes
Hepatic steatosis ([6]; 4 weeks of treatment): not observed
dose-related histological findings ([6]; 12 and 20 mg/kg): basophilic granules in the liver and kidney
transient increase in activated partial thromboplastin time (APTT) ([6]; 12 and 20 mg/kg, during the first 4 hours): 1.2-1.3 fold
